In patent US6660276B1, “Peptides recognized by melanoma-specific cytotoxic lymphocytes, and uses therefor” (The University of Virginia Patent Foundation, priority 1994, dated 2003):
pEC50: −log10 of the molar value. Where no end group is shown, it is not given here.

Key:
Type in all cases: cell-based, human
[1] = tested on: melanoma specific CTL VMM5; assay: Reconstitution of melanoma-specific CTL epitope on peptide-pulsed 51Cr-labelled T2 cells, chromium release assay, VMM5 CTL; details: for effect on epitope reconstitution: concentrations up to 10 nM
Protocol: (§1) Cell-mediated killing was determined in vitro using a 4-h chromium release assay. 51Cr-labeled target cells were plated at 2×10^3 cells/well in triplicate on 96-well V-bottom plates (Costar, Cambridge, Mass.) with varying numbers of effector cells in a final volume of 250 microl. Wells containing either culture medium and target cells only or 1 M HCl and target cells served as background 51Cr release controls and total release controls, respectively. The plates were centrifuged at 100×g for 3 min and incubated at 37° C. in 5% CO2 for 4 h. The plates were again centrifuged, and 0.20 ml of medium from each well was removed for counting in a gamma counter. The cytotoxic index was calculated as: [formula] […] Effector cells were added in 100 microl assay medium to give an E:T ratio of 10:1, and were incubated at 37° C. The remainder of the assay is performed as in standard chromium release assays described above. Wells containing peptide and target cells but no CTL were used as controls to rule out toxicity of the peptides themselves. […] HLA-A2.1 molecules were immunoaffinity purified from detergent lysates of the human melanoma cell line DM6. The associated peptides were released by acid extraction, separated from HLA-A2.1 and antibody by filtration, and fractionated by multiple stages of HPLC. […] L. Slingluff Jr., et al, J. Immunol. (1993) […], 2955, by using a gradient of acetonitrile/0.085% trifluoroacetic acid (TFA) in 0.1% TFA with acetonitrile increasing from 0 to 9% (0-5 min), 9 to 36%(5-55min), 36 to 60% (55-62min) (v/v), collecting one-minute fractions. In FIG. 8B Fractions 2 and 3 from the separation shown in panel A were pooled and rechromatographed with a 55 minute gradient of 0 to 30% acetonitrile/0.1% heptafluorobutyric acid (HFBA) in 0.1% HFBA, collecting one-minute fractions. For both panels, peptide fractions were incubated for 2-3 h with 2×10^3 51Cr-labelled T2 cells in 150 ll assay media per well in 96-well plates. […]

[2] = tested on: melanoma specific CTL DM204-13; assay: Reconstitution of melanoma-specific CTL epitope on peptide-pulsed 51Cr-labelled T2 cells, chromium release assay, DM204-13 CTL; details: for effect on epitope reconstitution: concentrations up to 10 nM
Protocol: as §1

[3] = tested on: HLA-A2.1 restricted melanoma specific CTL lines (VMM5, VMM6, DM169-13, DM204-13, LD1); assay: Chromium release assay, peptide-preincubated T2 cells, panel of HLA-A2.1 restricted melanoma specific CTL lines from different patients; details: for activity in reconstituting recognition by CTL lines from 3 additional patients: at equal or higher concentrations than 946 (0.1-1 nM)
Protocol: Cell-mediated killing was determined in vitro using a 4-h chromium release assay. 51Cr-labeled target cells were plated at 2×10^3 cells/well in triplicate on 96-well V-bottom plates (Costar, Cambridge, Mass.) with varying numbers of effector cells in a final volume of 250 microl. Wells containing either culture medium and target cells only or 1 M HCl and target cells served as background 51Cr release controls and total release controls, respectively. The plates were centrifuged at 100×g for 3 min and incubated at 37° C. in 5% CO2 for 4 h. The plates were again centrifuged, and 0.20 ml of medium from each well was removed for counting in a gamma counter. The cytotoxic index was calculated as: [formula] […] Effector cells were added in 100 microl assay medium to give an E:T ratio of 10:1, and were incubated at 37° C. The remainder of the assay is performed as in standard chromium release assays described above. Wells containing peptide and target cells but no CTL were used as controls to rule out toxicity of the peptides themselves. […] To determine whether peptide 946 was a generally relevant epitope for HLA-A2.1 restricted melanoma specific CTL, lines from 3 additional patients were tested. CTL lines VMM5 and VMM6 were generated by stimulation with autologous tumor. VMM5 CTL were maintained on allogeneic A2.1^+ melanoma DM6 after specificity was obtained, C. L. Slingluff Jr. et al., J. Immunol. 150, 2955 (1993). DM169-13 and DM204-13 CTL were generated by stimulation with allogeneic A2.1^+ melanoma DM13, N. J. Crowley et al., J. Immunol. 146, 1692 (1991), then maintained with DM6. LD1 CTL were stimulated on a rotating schedule of stimulating logeneic A2.1^+ melanomas DM6, DM13, and DM93. DM93 is an HLA-A2.1^+ melanoma used as a positive control. […] T2 cells were preincubated with the peptides whose (M+H)^+ values are indicated in the legend, FIG. 12. […] All other peptides were used at a concentration of 10 nM except 250 nM for DM169 and 0.1 nM for LD1. Asterisks (*) mark peptides not evaluated. The sequences of the peptides 864 (Seq. ID No. 88), 946 (Seq. ID No. 39), 1046 (Seq. ID No. 89) are described in the text. Peptide 1030 has the sequence […] (SEQ ID NO:90), (related to peptide from tyrosinase. molecule). […] An additional peptide Try […] (SEQ ID NO 96), which originates from tyrosinase and had been identified by Boon and colleagues as an HLA-A2.1 restricted melanoma specific T cell epitope, was also evaluated. None of 4 CTL lines recognized cells incubated with this peptide.

[4] = T2 cells, synthetic peptide with equimolar Leu/Ile at X, read-out: half-maximal reconstitution of the epitope

| Substance | effect on epitope reconstitution [1] | effect on epitope reconstitution [2] | activity in reconstituting recognition by CTL lines from 3 additional patients [3] | other results |
| --- | --- | --- | --- | --- |
| Ala Xaa Tyr Asp Ala Thr Tyr Glu Thr [Peptide 1046] | no effect | no effect | neither 864 nor 1046 had any detectable activity |  |
| SMAPGNTSV [Peptide 864] | no effect | no effect | neither 864 nor 1046 had any detectable activity |  |
| Try Met Asn Gly Thr Met Ser Gln Val (YMNGTMSQV) [SEQ ID NO 96, originates from tyrosinase, reference compound] |  |  |  | CTL lines that recognized cells incubated with the peptide ([3]; 4 CTL lines tested): None of 4 |
| Tyr Xaa Glu Pro Gly Pro Val Thr Ala [Peptide 946] |  |  |  | pEC50 [1, 4]: 11.00 to 12.00; pEC50 [2, 4]: 11.00 to 12.00; pEC50 ([3]; dose response curves for two of the 3 additional CTL lines, read-out: half-maximal lysis): 11.00 to 12.00; patients / CTL lines whose T-cells recognized the HLA-A2.1-associated peptide ([3]; five melanoma-specific CTL lines from five patients): 5 out of 5 and all five lines recognize; reconstitution of recognition by CTL lines from 3 additional patients ([3]; peptide at 0.1-1 nM, T2 cells, FIG. 12): reconstituted recognition |
